Source: PMC4297251 (Investigational new drugs, 2014)

Key:
[1] = test system: patients with refractory solid tumors; experiment: Phase I dose escalation of RO4929097 with capecitabine: toxicity / DLT; type: in vivo
clinical = details: human, in vivo; for AUC(0-inf): AUC0→∞
refractory solid tumors = experiment: Antitumor activity by RECIST 1.1; type: in vivo, human; details: 30 patients, all dose levels, with capecitabine
multiple animal models = details: oral dosing; cited from earlier work
[2] = n=30, worst grade, at least possibly related, with capecitabine

CC(C)(C(=O)NCC(F)(F)C(F)(F)F)C(=O)N[C@@H]1C(=O)Nc2ccccc2-c2ccccc21 [RO4929097]
Anemia, Grade 1 ([1]; human, in vivo): 0 n (%)
Anemia, Grade 2 ([1]; human, in vivo): 2 (7) n (%)
Anemia, Grade 3 ([1]; human, in vivo): 1 (3) n (%)
Anemia, Grade 4 ([1]; human, in vivo): 0 n (%)
Anemia, Overall ([1]; human, in vivo): 3 (10) n (%)
Anorexia, Grade 1 ([1]; human, in vivo): 5 (17) n (%)
Anorexia, Grade 2 ([1]; human, in vivo): 2 (7) n (%)
Anorexia, Grade 3 ([1]; human, in vivo): 0 n (%)
Anorexia, Grade 4 ([1]; human, in vivo): 0 n (%)
Anorexia, Overall ([1]; human, in vivo): 7 (23) n (%)
Chills, Grade 1 ([1]; human, in vivo): 3 (10) n (%)
Chills, Grade 2 ([1]; human, in vivo): 0 n (%)
Chills, Grade 3 ([1]; human, in vivo): 0 n (%)
Chills, Grade 4 ([1]; human, in vivo): 0 n (%)
Chills, Overall ([1]; human, in vivo): 3 (10) n (%)
Diarrhea, Grade 1 ([1]; human, in vivo): 9 (30) n (%)
Diarrhea, Grade 2 ([1]; human, in vivo): 4 (13) n (%)
Diarrhea, Grade 3 ([1]; human, in vivo): 1 (3) n (%)
Diarrhea, Grade 4 ([1]; human, in vivo): 0 n (%)
Diarrhea, Overall ([1]; human, in vivo): 14 (47) n (%)
Dry skin, Grade 1 ([1]; human, in vivo): 5 (17) n (%)
Dry skin, Grade 2 ([1]; human, in vivo): 0 n (%)
Dry skin, Grade 3 ([1]; human, in vivo): 0 n (%)
Dry skin, Grade 4 ([1]; human, in vivo): 0 n (%)
Dry skin, Overall ([1]; human, in vivo): 5 (17) n (%)
Fatigue, Grade 1 ([1]; human, in vivo): 6 (20) n (%)
Fatigue, Grade 2 ([1]; human, in vivo): 8 (27) n (%)
Fatigue, Grade 3 ([1]; human, in vivo): 2 (7) n (%)
Fatigue, Grade 4 ([1]; human, in vivo): 0 n (%)
Fatigue, Overall ([1]; human, in vivo): 16 (53) n (%)
Headache, Grade 1 ([1]; human, in vivo): 9 (30) n (%)
Headache, Grade 2 ([1]; human, in vivo): 0 n (%)
Headache, Grade 3 ([1]; human, in vivo): 0 n (%)
Headache, Grade 4 ([1]; human, in vivo): 0 n (%)
Headache, Overall ([1]; human, in vivo): 9 (30) n (%)
Hypokalemia, Grade 1 ([1]; human, in vivo): 1 (3) n (%)
Hypokalemia, Grade 2 ([1]; human, in vivo): 1 (3) n (%)
Hypokalemia, Grade 3 ([1]; human, in vivo): 2 (7) n (%)
Hypokalemia, Grade 4 ([1]; human, in vivo): 0 n (%)
Hypokalemia, Overall ([1]; human, in vivo): 4 (13) n (%)
Hypophosphatemia, Grade 1 ([1]; human, in vivo): 0 n (%)
Hypophosphatemia, Grade 2 ([1]; human, in vivo): 8 (27) n (%)
Hypophosphatemia, Grade 3 ([1]; human, in vivo): 6 (20) n (%)
Hypophosphatemia, Grade 4 ([1]; human, in vivo): 0 n (%)
Hypophosphatemia, Overall ([1]; human, in vivo): 14 (47) n (%)
Nausea, Grade 1 ([1]; human, in vivo): 17 (57) n (%)
Nausea, Grade 2 ([1]; human, in vivo): 2 (7) n (%)
Nausea, Grade 3 ([1]; human, in vivo): 2 (7) n (%)
Nausea, Grade 4 ([1]; human, in vivo): 0 n (%)
Nausea, Overall ([1]; human, in vivo): 21 (70) n (%)
Pain in legs, Grade 1 ([1]; human, in vivo): 4 (13) n (%)
Pain in legs, Grade 2 ([1]; human, in vivo): 0 n (%)
Pain in legs, Grade 3 ([1]; human, in vivo): 0 n (%)
Pain in legs, Grade 4 ([1]; human, in vivo): 0 n (%)
Pain in legs, Overall ([1]; human, in vivo): 4 (13) n (%)
Palmar-plantar erythrodysesthesia syndrome, Grade 1 ([1]; human, in vivo): 3 (10) n (%)
Palmar-plantar erythrodysesthesia syndrome, Grade 2 ([1]; human, in vivo): 1 (3) n (%)
Palmar-plantar erythrodysesthesia syndrome, Grade 3 ([1]; human, in vivo): 1 (3) n (%)
Palmar-plantar erythrodysesthesia syndrome, Grade 4 ([1]; human, in vivo): 0 n (%)
Palmar-plantar erythrodysesthesia syndrome, Overall ([1]; human, in vivo): 5 (17) n (%)
QTc prolongation, Grade 1 ([1]; human, in vivo): 5 (17) n (%)
QTc prolongation, Grade 2 ([1]; human, in vivo): 1 (3) n (%)
QTc prolongation, Grade 3 ([1]; human, in vivo): 0 n (%)
QTc prolongation, Grade 4 ([1]; human, in vivo): 0 n (%)
QTc prolongation, Overall ([1]; human, in vivo): 6 (20) n (%)
Taste alteration, Grade 1 ([1]; human, in vivo): 5 (17) n (%)
Taste alteration, Grade 2 ([1]; human, in vivo): 0 n (%)
Taste alteration, Grade 3 ([1]; human, in vivo): 0 n (%)
Taste alteration, Grade 4 ([1]; human, in vivo): 0 n (%)
Taste alteration, Overall ([1]; human, in vivo): 5 (17) n (%)
Vomiting, Grade 1 ([1]; human, in vivo): 11 (37) n (%)
Vomiting, Grade 2 ([1]; human, in vivo): 1 (3) n (%)
Vomiting, Grade 3 ([1]; human, in vivo): 2 (7) n (%)
Vomiting, Grade 4 ([1]; human, in vivo): 0 n (%)
Vomiting, Overall ([1]; human, in vivo): 14 (47) n (%)
Weight loss, Grade 1 ([1]; human, in vivo): 3 (10) n (%)
Weight loss, Grade 2 ([1]; human, in vivo): 1 (3) n (%)
Weight loss, Grade 3 ([1]; human, in vivo): 0 n (%)
Weight loss, Grade 4 ([1]; human, in vivo): 0 n (%)
Weight loss, Overall ([1]; human, in vivo): 4 (13) n (%)
diarrhea, patients ([1]; human, in vivo): 47%
fatigue, patients ([1]; human, in vivo): 53%
hypophosphatemia, patients ([1]; human, in vivo): 47%
nausea, patients ([1]; human, in vivo): 70%
vomiting, patients ([1]; human, in vivo): 47%
Anemia, Grade 5 [1, 2]: 0 n (%)
Anorexia, Grade 5 [1, 2]: 0 n (%)
Chills, Grade 5 [1, 2]: 0 n (%)
Diarrhea, Grade 5 [1, 2]: 0 n (%)
Dry skin, Grade 5 [1, 2]: 0 n (%)
Fatigue, Grade 5 [1, 2]: 0 n (%)
Headache, Grade 5 [1, 2]: 0 n (%)
Hypokalemia, Grade 5 [1, 2]: 0 n (%)
Hypophosphatemia, Grade 5 [1, 2]: 0 n (%)
Nausea, Grade 5 [1, 2]: 0 n (%)
Pain in legs, Grade 5 [1, 2]: 0 n (%)
Palmar-plantar erythrodysesthesia syndrome, Grade 5 [1, 2]: 0 n (%)
QTc prolongation, Grade 5 [1, 2]: 0 n (%)
Taste alteration, Grade 5 [1, 2]: 0 n (%)
Vomiting, Grade 5 [1, 2]: 0 n (%)
Weight loss, Grade 5 [1, 2]: 0 n (%)
Cmax (clinical; 20 mg): 358.3 ng/mL
Half Life (clinical; 20 mg): 30.7 h
Cmax (clinical; 20 mg, Cmax): 646 ng/mL
half-life (clinical; 20 mg): 36.2 h
AUC0→∞ (clinical; 30 mg): 16609.4 ng·h/mL
Cmax (clinical; 30 mg): 668.5 ng/mL
Vd (clinical; 30 mg): 88.7 L/h
AUC(0-inf) (clinical; 30 mg): 25900 ng·h/mL
Cmax (clinical; 30 mg, Cmax): 656 ng/mL
Vd (clinical; 30 mg, Vd): 53 L
Half Life (clinical; 45 mg): 9.5 h
Vd (clinical; 45 mg): 118.9 L/h
half-life (clinical; 45 mg): 17.8 h
Vd (clinical; 45 mg, Vd): 63.3 L
AUC0→∞ (clinical; 68 mg): 18050.7 ng·h/mL
Cmax (clinical; 68 mg): 1011.7 ng/mL
Half Life (clinical; 68 mg): 16.0 h
AUC(0-inf) (clinical; 68 mg): 34400 ng·h/mL
Cmax (clinical; 68 mg, Cmax): 1640 ng/mL
half-life (clinical; 68 mg): 15.9 h
AUC0→∞ (clinical; 100 mg): 32748.6 ng·h/mL
Cl (clinical; 100 mg): 3953.9 mL/h
Cmax (clinical; 100 mg): 1473.2 ng/mL
Half Life (clinical; 100 mg): 19.8 h
AUC(0-inf) (clinical; 100 mg): 51900 ng·h/mL
clearance (clinical; 100 mg, Cl): 43.3 mL/min
Cmax (clinical; 100 mg, Cmax): 2390 ng/mL
half-life (clinical; 100 mg): 13.4 h
Vd (clinical; 150 mg): 168.2 L/h
Vd (clinical; 150 mg, Vd): 154 L
progressive disease as best response, patients (refractory solid tumors): 60%
stable disease as best response, patients (refractory solid tumors; after three or more cycles): 30%
efficacy maintained post-dosing (multiple animal models): up to 90 days
